From patent US20240300980A1, “HETEROCYCLIC COMPOUNDS AS KRAS INHIBITOR, AND PREPARATION THEREFOR AND USE THEREOF IN TREATMENT” (SHANGHAI KECHOW PHARMA, INC., priority 2021, published 2024)

Test system: AGS cells (KRAS^G12D)
Test: Detection of cell proliferation in vitro by MTT/MTS method (cell activity experiment)
Assay type: cell-based
Conditions: AGS cells; MTT/MTS; 3 days of drug treatment; read-out: AGS IC50
Method: The above cells were cultured in a complete medium containing 10% fetal bovine serum, 100 IU/mL penicillin and 100 jag/mL streptomycin, in the aseptic incubator with 95% relative humidity and 5% CO2 concentration.
2. Reagents: F12K, D-PBS, FBS, Penicillin Streptomycin, Tryple, MTT (5 mg/mL)
Appropriate amount of compound powder was weighed in a 1.5 mL centrifuge tube, then the corresponding volume of dimethyl sulfoxide (DMSO) was added to form a 20 mM reserve solution. The solution was packed separately and stored in a refrigerator at −20° C. away from light.
The cells were inoculated in a cell culture bottle, added an appropriate amount of complete medium, and cultured in a sterile incubator. When the degree of cell confluence reached more than 80%, subculture was carried out.
The adherent cells in logarithmic growth phase were digested by trypsin or the suspension cells were collected by centrifugation and counted. 90 μL cell suspension was inoculated into 96-well plate according to the cell inoculation density of 1000 cells per well, and 10 μL of 10-fold final concentration compound diluted by culture medium was added 24 hours later. Compared with the hole with the same volume of 5% DMSO as control, the final concentration of DMSO was 0.5%. After 3 days of drug treatment, the cell viability was detected by MTT. The specific methods are as follows: 10 μL MTT per well was added into the incubator for 4 hours, the supernatant was discarded and 150 μL DMSO was added to dissolve the crystal methylazan, and the absorbance of 490 nm was detected by enzyme labeling instrument, or 10 μL MITS per well was added to the incubator for 4 hours, and […] absorbance was detected directly by enzyme labeling instrument. GraphPad Prism 6 software makes dose-effect curve and calculates IC50.

Row | Compound | IC50 [nM]
1 | C#Cc1c(F)ccc2cc(O)cc(-c3ccc4c(N5C[C@H]6CC[C@@H](C5)N6)c(F)c(OC[C@@]56CCCN5C[C@H](F)C6)nc4c3F)c12 [Example 335, 4-(4-((1R,5S)-3,8-diazabicyclo[3.2.1]octan-3-yl)-3,8-difluoro-2-(((2R,7aS)-2-fluorotetrahydro-1H-pyrrolizin-7a(5H)-yl)methoxy)quinolin-7-yl)-5-ethynyl-6-fluoronanhthalen-2-ol] | 20.7
2 | C#Cc1c(F)ccc2cc(O)cc(-c3ccc4c(N5CCC(N)C5)nc(OC[C@@]56CCCN5C[C@H](F)C6)nc4c3F)c12 (stereo partly drawn) [Example 116, 4-(4-(3-aminopyrrolidin-1-yl)-8-fluoro-2-(((2R, 7aS)-2-fluorotetrahydro-1H-pyrrolizin-7a(5H)-yl)methoxy)quinazolin-7-yl)-5-ethynyl-6-fluoronaphthalen-2-ol] | > 2500

Same assay, conditions: Homo sapiens, AGS, 72 h, AGS cells; MTT/MTS; 3 days of drug treatment; read-out: AGS IC50

Row | Compound | IC50 [nM]
3 | CCC1CCc2cc(O)cc(-c3cc4nc(OC[C@@]56CCCN5C[C@H](F)C6)nc(N5C[C@H]6CC[C@@H](C5)N6)c4c4occc34)c21 (stereo partly drawn) [Example 386, 7-(9-((1R,5S)-3,8-diazabicyclo[3.2.1]octan-3-yl)-7-(((2R,7aS)-2-fluorotetrahydro-1H-pyrrolizin-7a(5H)-yl)methoxy)furo[2,3-f]quinazolin-4-yl)-1-ethyl-2,3-dihydro-1H-inden-5-ol] | 508
4 | C#Cc1c(F)ccc2cc(O)cc(-c3ccc4c(N5C[C@H]6CC[C@@H](C5)N6)nc(OC[C@]56CCCN5[C@@H](COC(=O)N(C)C)CC6)nc4c3F)c12 [Example 96, ((3R,7aR)-7a-(((4-((1R,5S)-3,8-diazabicyclo[3.2.1]octan-3-yl)-7-(8-ethynyl-7-fluoro-3-hydroxynaphthalen-1-yl)-8-fluoroquinazolin-2-yl)oxy)methyl)hexahydro-1H-pyrrolizin-3-yl)methyl dimethylcarbamate] | 7.9
5 | C#Cc1c(F)ccc2cc(O)cc(-c3ccc4c(N5C[C@H]6CC[C@@H](C5)C6(F)F)nc(OC[C@@]56CCCN5C[C@H](F)C6)nc4c3F)c12 [Example 119, 4-(4-((1R,5S)-8,8-difluoro-3-azabicyclo [3.2.1]octan-3-yl)-8-fluoro-2-(((2R,7aS)-2-fluorotetrahydro-1H-pyrrolizin-7a(5H)-yl)methoxy)quinazolin-7-yl)-5-ethynyl-6-fluoronaphthalen-2-ol] | > 2500
6 | C#Cc1c(F)ccc2cc(O)cc(-c3ncc4c(N5C[C@H]6CC[C@@H](C5)O6)nc(OC[C@@]56CCCN5C[C@H](F)C6)nc4c3F)c12 [Example 12, 4-(4-((1R,5S)-8-oxa-3-azabicyclo[3.2.1]octan-3-yl)-8-fluoro-2-(((2R,7aS)-2-fluorotetrahydro-1H-pyrrolizin-7a(5H)-yl)methoxy)pyrido[4,3-d]pyrimidin-7-yl)-5-ethynyl-6-fluoronaphthalen-2-ol] | 316
7 | CCc1c(F)ccc2cc(O)cc(-c3ncc4c(N5C[C@H]6CC[C@@H](C5)O6)nc(OC[C@@]56CCCN5C[C@H](F)C6)nc4c3F)c12 [Example 13, 4-(4-((1R,5S)-8-oxa-3-azabicyclo[3.2.1]octan-3-yl)-8-fluoro-2-(((2R,7aS)-2-fluorotetrahydro-1H-pyrrolizin-7a(5H)-yl)methoxy)pyrido[4,3-d]pyrimidin-7-yl)-5-ethyl-6-fluoronaphthalen-2-ol] | 320
8 | Oc1cc2c(c(-c3ncc4c(N5C[C@H]6CC[C@@H](C5)N6)nc(OC[C@@]56CCCN5C[C@H](F)C6)nc4c3F)c1)CCCC2 [Example 271, 4-(4-((1R,5S)-3,8-diazabicyclo[3.2.1]octan-3-yl)-8-fluoro-2-(((2R,7aS)-2-fluorotetrahydro-1H-pyrrolizin-7a(5H)-yl)methoxy)pyrido[4,3-d]pyrimidin-7-yl)-5,6,7,8-tetrahydronaphthalen-2-ol] | 11
9 | C#Cc1c(F)ccc2cc(O)cc(-c3ncc4c(N5CC6CCC(C5)C6[S+](C)[O-])nc(OC[C@@]56CCCN5C[C@H](F)C6)nc4c3F)c12 (stereo partly drawn) [Example 65, 5-ethynyl-6-fluoro-4-(8-fluoro-2-(((2R,7aS)-2-fluorotetrahydro-1H-pyrrolizin-7a(5H)-yl)methoxy)-4-((1R,5S, 8R)-8-(methylsulfinyl)-3-azabicyclo[3.2.1]octan-3-yl)pyrido[4,3-d]pyrimidin-7-yl) naphthalen-2-ol] | > 10000
10 | CCc1c(F)ccc2cc(O)cc(N3CCc4c(nc(OC[C@@]56CCCN5C[C@H](F)C6)nc4N4C[C@H]5CC[C@@H](C4)N5)C3)c12 [Example 203, 4-(4-((1R,5S)-3,8-diazabicyclo[3.2.1]octan-3-yl)-2-(((2R,7aS)-2-fluorotetrahydro-1H-pyrrolizin-7a(5H)-yl)methoxy)-5,8-dihydropyrido[3,4-d]pyrimidin-7(6H)-yl)-5-ethyl-6-fluoronaphthalen-2-ol] | 17
11 | C#Cc1cccc2cc(O)cc(-c3ncc4c(N5C[C@H]6CC[C@@H](C5)S6)nc(OC[C@@]56CCCN5C[C@H](F)C6)nc4c3F)c12 [Example 20, 4-(4-((1R,5S)-8-thia-3-azabicyclo [3.2.1]octan-3-yl)-8-fluoro-2-(((2R, 7aS)-2-fluorotetrahydro-1H-pyrrolizin-7a(5H)-yl)methoxy)pyrido [4,3-d]pyrimidin-7-yl)-5-ethynylnaphthalen-2-ol] | 271
12 | C#Cc1c(F)ccc2cc(O)cc(-c3cnc4c(N5C[C@H]6CC[C@@H](C5)N6)nc(OC[C@@]56CCCN5C[C@H](F)C6)nc4c3)c12 [Example 200, 4-(4-((1R,5S)-3,8-diazabicyclo[3.2.1]octan-3-yl)-2-(((2R,7aS)-2-fluorotetrahydro-1H-pyrrolizin-7a(5H)-yl)methoxy)pyrido[3,2-d]pyrimidin-7-yl)-5-ethynyl-6-fluoronaphthalen-2-ol] | > 2500
13 | C#Cc1cccc2cc(O)cc(-c3ncc4c(N5CC6CCCC(C5)N6)nc(OC[C@@]56CCCN5C[C@H](F)C6)nc4c3F)c12 [Example 44, 4-(4-(3,9-diazabicyclo [3.3.1]nonan-3-yl)-8-fluoro-2-(((2R,7aS)-2-fluorotetrahydro-1H-pyrrolizin-7a(5H)-yl)methoxy)pyrido[4,3-d]pyrimidin-7-yl)-5-ethynylnaphthalen-2-ol] | 47
14 | N#Cc1c(OC[C@@]23CCCN2C[C@H](F)C3)nc2cc(-c3cc(O)cc4cccc(F)c34)ccc2c1N1C[C@H]2CC[C@@H](C1)N2 [Example 176, 4-((1R,5S)-3,8-diazabicyclo[3.2.1]octan-3-yl)-7-(8-fluoro-3-hydroxynaphthalen-1-yl)-2-(((2R,7aS)-2-fluorotetrahydro-1H-pyrrolizin-7a(5H)-yl)methoxy)quinoline-3-carbonitrile] | 1340
15 | Oc1cc2c(c(-c3ncc4c(N5C[C@H]6CC[C@@H](C5)N6)nc(OC[C@@]56CCCN5C[C@H](F)C6)nc4c3F)c1)C1CC1CC2 (stereo partly drawn) [Example 246, 7-(4-((1R,5S)-3,8-diazabicyclo[3.2.1]octan-3-yl)-8-fluoro-2-(((2R,7aS)-2-fluorotetrahydro-1H-pyrrolizin-7a(5H)-yl)methoxy)pyrido[4,3-d]pyrimidin-7-yl)-1a,2,3,7b-tetrahydro-1H-cyclopropa[a]naphthalen-5-ol] | 109
16 | [O-][S+]1CCc2cc(O)cc(-c3ncc4c(N5C[C@H]6CC[C@@H](C5)N6)nc(OC[C@@]56CCCN5C[C@H](F)C6)nc4c3F)c21 (stereo partly drawn) [Example 252, 7-(4-((1R,5S)-3,8-diazabicyclo[3.2.1]octan-3-yl)-8-fluoro-2-(((2R,7aS)-2-fluorotetrahydro-1H-pyrrolizin-7a(5H)-yl)methoxy)pyrido[4,3-d]pyrimidin-7-yl)-5-hydroxy-2,3-dihydrobenzo[b]thiophene 1-oxide] | > 2500
